Structures can show the parent of a compound that is named as a salt. Blank lines part the entries; values can stand above or below the compound they belong to.
Legend:
A2780/DOX [1] = experiment: Sensitization of the MDR cell line to doxorubicin; assay type: cell-based, human; conditions: Homo sapiens, no flavonolignan added, same value repeated in each column, read-out: IC50 of doxorubicin alone
A2780/DOX [2] = experiment: Viability of A2780/DOX cells (resazurin)
Experimental: To determine the NO production, the medium was mixed with Griess reagent (0.04 g/mL, prepared in deionized water) in a 1:1 ratio. After 15 min, absorbance was recorded at 540 nm. To determine cell viability, the resazurin solution (0.03 mg/mL in PBS) was added to the cells. After 2 h of incubation, fluorescence was recorded (560/590 nm, ex./em.).
A multidrug resistant ovarian sub-line resistant to doxorubicin (A2780/DOX, Sigma-Aldrich) was cultivated in DMEM medium with 10% FBS and 1 × antibiotic antimycotic solution. Every other passage, doxorubicin at the final concentration of 0.1 µM was added to the culture medium to maintain the resistance of the cell line. To perform experiments, the cells were seeded at 1 × 10^5 cell/mL into the wells of a 96-well plate and incubated for 24 h. Afterwards, the cells were washed with PBS and fresh DMEM medium with tested compounds at 10, 20 and 30 µM were added to each well, except for the control wells. Subsequently, the cells were exposed to increasing concentrations of doxorubicin (0.6–20 µM) for 72 h. After incubation, the resazurin assay was performed as described above. The IC50 of doxorubicin was calculated for both the control and the samples and the fold change was counted up. […] The fold change lower than 1 means an antagonistic effect. (1) FOLD CHANGE=IC50 value of DOX cells treated with chemotherapeutic /IC50 value of DOX cells treated with chemotherapeutic and compound

human recombinant P-gp = biological target: T1, human recombinant P-gp (Homo sapiens, UniProt P08183); experiment: biochemical; conditions: verapamil-stimulated P-gp ATPase, membrane fraction; read-out: P-gp, concentration necessary to halve ATP consumption (IC50)
T1 construct: purchased Promega
Experimental: The procedure and the dilution of the reagents were performed according to the manufacturer’s instructions. Briefly, the human recombinant P-gp-containing membrane (25 µg) was mixed in a 96-well plate with P-gp–Glo™ Assay buffer (control), verapamil (P-gp substrate, positive control, 0.2 mM), Na3VO4 (P-gp inhibitor, negative control, 0.1 mM), ATP standards (to construct the calibration curve, 0.375–3 mM) or samples (2.5 µL, in the concentration range 0.7–20 mM). After that, MgATP (5 mM) was added to total volume of 50 µL to each well to initiate the ATPase reaction. The plate was incubated for 1 h at 37 °C. Thereafter, the reaction was stopped by adding 50 µL of ATP detection reagent and incubated at room temperature for 20 min. The remaining non-metabolized ATP was detected as a luciferase-generated signal.
Using linear regression, the standard ATP curve was designed, and by subsequent interpolation of relative luminescence (RLU) of standards, the amount of ATP consumed in the samples was recalculated according to the manufacturer’s guidelines.

[3] = test system: nitric oxide (NO) production by LPS-stimulated macrophages (RAW 264.7); experiment: NO production by LPS-stimulated macrophages (Griess); assay type: cell-based, mouse; conditions: Mus musculus, RAW264.7; RAW 264.7, LPS 1 µg/mL, 24 h; read-out: NO Production, concentration necessary to halve NO production (IC50)
Experimental: Immunomodulatory effect of tested compounds was determined as their ability to decrease nitric oxide (NO) production by LPS-stimulated macrophages (RAW 264.7, Sigma-Aldrich). Briefly, the cells were seeded into the 96-well plate at a density of 1 × 10^6 cells/mL in DMEM medium (supplemented with 2 mM L-glutamine and 1 × antibiotic antimycotic solution). After 48 h, the cells were washed with PBS. The MEM medium enriched with LPS (1 µg/mL) was added to the wells, together with the samples in the concentration range of 6.25–100 µM at a final volume of 100 µL. Indomethacin, a non-steroidal anti-inflammatory drug, was tested as a positive control in the concentration range 6.25–100 µM. After 24 h, the medium was used for the quantification of NO and inflammatory cytokines.
After 15 min, absorbance was recorded at 540 nm.

[4] = ORAC (oxygen radical absorption capacity) assay; conditions: fluorescein/AAPH; read-out: ORAC, concentration necessary to halve the fluorescence response (IC50)
Experimental: Antioxidant capacity of samples was determined by ORAC (oxygen radical absorption capacity) and CAA (cellular antioxidant activity) assays. ORAC assay was realized by the previously described protocol. Briefly, 50 µL of the fluorescein solution (1.6 µg/mL in phosphate-buffered saline (PBS), pH 7.4) was added by a dispenser (MultiFlo Microplate Dispenser, BioTek Instrument, Winooski, VT, USA) into each well of a 96-well plate. Subsequently, 2 µL of tested compound in the concentration range 1.25–20 µM and 23 µL of PBS were added to the wells. The plate was incubated for 15 min at 37 °C and then 25 µL of AAPH (60 mg/mL) was added to each well. AAPH was replaced with PBS for the negative control. Immediately, the fluorescence was recorded by the microplate reader (SpectraMax i3 Multi-Mode Detection Platform, Molecular Devices, San Jose, CA, USA) for 2 h in 5 min steps (excitation/emission 485/535 nm).

HepG2 cells = experiment: CAA (cellular antioxidant activity) assay; assay type: cell-based; conditions: Homo sapiens; HepG2, DCFH-DA/AAPH; read-out: CAA, concentration necessary to halve the fluorescence response (IC50)
Experimental: For the CAA assay, human hepatocellular carcinoma HepG2 cells (ATCC, Manassas, VA, USA) were seeded into a 96-well microplate at a density of 1 × 10^5 cells/well in EMEM medium supplemented with 10% of FBS, 2 mM L-glutamine and 1 × antibiotic antimycotic solution. The cells were maintained in a CO2 incubator (5% CO2, 37 °C, Memmert GmbH & Co, Büchenbach, Germany). The following day, the plates were washed with PBS and new fresh DMEM was added into each well supplemented with tested samples in the concentration range of 6.25–100 µM and fluorescent probe DCFH-DA (12.5 mg/L). After 1 h of incubation at 37 °C, the medium was replaced with AAPH solution (0.16 mg/mL in PBS), except for the negative control, where PBS was added instead. Directly, the fluorescence was recorded for 2 h in 5 min steps at 485/540 nm excitation/emission (ex./em.).

T1 sequence (P08183 whole entry): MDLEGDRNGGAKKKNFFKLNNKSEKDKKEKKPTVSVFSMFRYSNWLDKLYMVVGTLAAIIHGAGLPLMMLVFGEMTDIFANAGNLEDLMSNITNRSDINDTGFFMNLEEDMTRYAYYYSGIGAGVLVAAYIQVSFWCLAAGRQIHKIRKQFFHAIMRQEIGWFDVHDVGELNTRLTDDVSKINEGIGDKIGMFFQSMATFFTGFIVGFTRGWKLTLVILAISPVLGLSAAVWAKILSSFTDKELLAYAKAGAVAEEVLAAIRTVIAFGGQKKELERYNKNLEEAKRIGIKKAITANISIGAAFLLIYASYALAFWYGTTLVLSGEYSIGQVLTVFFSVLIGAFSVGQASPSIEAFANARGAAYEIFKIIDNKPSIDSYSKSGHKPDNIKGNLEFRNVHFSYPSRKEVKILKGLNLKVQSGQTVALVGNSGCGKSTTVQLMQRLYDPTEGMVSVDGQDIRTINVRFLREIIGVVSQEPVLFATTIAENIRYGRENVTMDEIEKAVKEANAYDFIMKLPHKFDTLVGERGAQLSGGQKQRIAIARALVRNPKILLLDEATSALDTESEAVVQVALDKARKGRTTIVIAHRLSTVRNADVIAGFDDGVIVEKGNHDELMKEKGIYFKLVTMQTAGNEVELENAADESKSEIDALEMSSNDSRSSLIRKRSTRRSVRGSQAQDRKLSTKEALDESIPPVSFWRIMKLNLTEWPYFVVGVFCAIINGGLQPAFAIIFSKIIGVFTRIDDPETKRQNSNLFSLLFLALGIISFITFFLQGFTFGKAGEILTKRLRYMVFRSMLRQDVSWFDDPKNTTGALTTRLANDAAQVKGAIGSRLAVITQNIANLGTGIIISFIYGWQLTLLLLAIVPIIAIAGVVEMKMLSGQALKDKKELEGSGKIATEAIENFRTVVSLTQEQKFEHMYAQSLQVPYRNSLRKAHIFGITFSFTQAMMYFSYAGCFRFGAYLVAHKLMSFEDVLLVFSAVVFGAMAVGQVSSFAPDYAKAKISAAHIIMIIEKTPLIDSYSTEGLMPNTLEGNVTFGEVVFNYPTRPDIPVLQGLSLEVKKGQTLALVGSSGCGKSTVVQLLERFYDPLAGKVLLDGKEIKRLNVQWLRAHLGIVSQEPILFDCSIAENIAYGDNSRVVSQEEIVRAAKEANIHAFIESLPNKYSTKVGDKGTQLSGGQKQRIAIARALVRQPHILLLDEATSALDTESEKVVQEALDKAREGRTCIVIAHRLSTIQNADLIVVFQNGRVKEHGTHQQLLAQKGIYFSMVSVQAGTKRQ

SMILES: COc1cccc2c1C(=O)c1c(O)c3c(c(O)c1C2=O)C[C@@](O)(C(=O)CO)C[C@@H]3O[C@H]1C[C@H](N)[C@H](O)[C@H](C)O1 [Doxorubicin, doxorubicin hydrochloride, reference compound]
- IC50 (A2780/DOX [1]): 1.88 ± 0.07 µM
- IC25 (A2780/DOX [2]; A2780/DOX): 0.94 µM
- IC50 (A2780/DOX [2]; Homo sapiens, A2780, read-out: IC50 (µM), concentration necessary to halve cell viability): 1.88 ± 0.07 µM

SMILES: [Na+].[Na+].[Na+].[O]=[V]([O-])([O-])[O-] [Orthovanadate, Sodium orthovanadate (Na3VO4), reference compound]
- IC50 (human recombinant P-gp): 18.9 ± 1.8 µM

- IC50 [3]: 78.1 ± 7.5 µM
SMILES: COc1ccc2c(c1)c(CC(=O)O)c(C)n2C(=O)c1ccc(Cl)cc1 [Indomethacin, indomethacin, reference compound]

- IC50 [4]: 6 ± 0.7 µM
- IC50 (HepG2 cells): 5.4 ± 0.3 µM
SMILES: O=c1c(O)c(-c2ccc(O)c(O)c2)oc2cc(O)cc(O)c12 [Quercetin, quercetin, reference compound]
